Results taken from patent US10329289B2, “6,7-dihydro-5H-pyrrolo[3,4-B]pyridin-5-one allosteric modulators of the M4 muscarinic acetylcholine receptor” (Merck Sharp & Dohme Corp., priority 2015, dated 2019).

biological target: T1, human M4 muscarinic acetylcholine receptor (Homo sapiens, UniProt P08173); assay: human FLIPR-based M4 PAM assay (Ca2+ mobilization, CHO-K1 cells with human M4 receptor and Gαqi5); type: cell-based; conditions: acetylcholine at 20% of maximum response, read-out: M4 PAM IP
T1 construct: expressed in transfected cells; host or cells: CHO-K1
T1 sequence (P08173 1-479): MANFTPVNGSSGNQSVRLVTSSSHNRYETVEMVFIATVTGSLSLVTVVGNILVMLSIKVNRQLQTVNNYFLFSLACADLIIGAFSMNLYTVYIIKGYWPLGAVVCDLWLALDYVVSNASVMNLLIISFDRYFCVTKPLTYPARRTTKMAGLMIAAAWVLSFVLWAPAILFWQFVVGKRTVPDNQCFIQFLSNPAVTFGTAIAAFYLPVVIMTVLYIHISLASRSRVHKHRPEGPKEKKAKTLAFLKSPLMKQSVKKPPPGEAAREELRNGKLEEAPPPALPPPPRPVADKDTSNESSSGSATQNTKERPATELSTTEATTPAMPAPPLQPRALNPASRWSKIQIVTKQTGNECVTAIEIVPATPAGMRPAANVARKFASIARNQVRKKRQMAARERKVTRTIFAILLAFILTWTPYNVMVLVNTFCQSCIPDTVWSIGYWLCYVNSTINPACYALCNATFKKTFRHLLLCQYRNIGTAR
Procedure, shortened: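 CHO-K1 cells stably expressing human M4 and chimeric Gαqi5 were dye-loaded ~1 h at 37 °C and read for Ca2+ fluorescence. Compound followed by acetylcholine at an EC20 (sometimes an EC70 third addition); inflection point from a 4-parameter logistic fit.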

SMILES | EC50 [nM]
Cc1c(N2CCC(Oc3ccc4c(c3)COC4)CC2)nc2c(c1C)C(=O)N([C@@H](C)CO)C2 [Example 266D, (S)-2-(4-((1,3-dihydro-2-benzofuran-5-yl)oxy)piperidin-1-yl)-6-(1-hydroxypropan-2-yl)-3,4-dimethyl-6,7-dihydro-5H-pyrrolo[3,4-b]pyridin-5-one] | 43
Cc1cc2c(nc1N1CCC(OCC3CC3(C)C)CC1)CNC2=O (stereo not shown) [Example 311, 2-(4-((2,2-Dimethylcyclopropyl)methoxy)piperidin-1-yl)-3-methyl-6,7-dihydro-5H-pyrrolo[3,4-b]pyridin-5-one] | 686
Cc1cc2c(nc1N1CCC(Oc3ccc4c(c3)OCCN4C)CC1)CNC2=O [Example 293, 3-methyl-2-(4-((4-methyl-3,4-dihydro-2H-benzo[b][1,4]oxazin-7-yl)oxy)piperidin-1-yl)-6,7-dihydro-5H-pyrrolo[3,4-b]pyridin-5-one] | 104
Cc1c(N2CCC(OCC3(C)CC3(F)F)CC2)nc2c(c1C)C(=O)N(CCO)C2 (stereo not shown) [Example 259A, 2-(4-((2,2-difluoro-1-methylcyclopropyl)methoxy)piperidin-1-yl)-6-(2-hydroxyethyl)-3,4-dimethyl-6,7-dihydro-5H-pyrrolo[3,4-b]pyridin-5-one] | 117
CCc1cc2c(nc1N1CCC(OCC3(C)CC3(F)F)CC1)CNC2=O (stereo not shown) [Example 187A, 2-(4-((2,2-difluoro-1-methylcyclopropyl)meth-oxy)piperidin-1-yl)-3-ethyl-6,7-dihydro-5H-pyrrolo[3,4-b]pyridin-5-one] | 295
Cc1cc2c(nc1N1CC[C@@H](Oc3cccnc3)[C@@H](F)C1)CNC2=O (single isomer, unassigned) [Example 166, 2-((3S,4R) or (3R,4S)-3-fluoro-4-(pyridin-3-yloxy)piperidin-1-yl)-3-methyl-6,7-dihydro-5H-pyrrolo[3,4-b]pyridin-5-one] | 90
Cc1cc2c(nc1N1CCC(OCc3cccnc3)CC1)CNC2=O [Example 161, 3-Methyl-2-(4-(pyridin-3-ylmethoxy)piperidin-1-yl)-6,7-dihydro-5H-pyrrolo[3,4-b]pyridin-5-one] | 1520
Cc1c(N2CC[C@@H](Oc3cnn(C)c3)C(F)(F)C2)nc2c(c1C)C(=O)NC2 [Example 336B, (R)-2-(3,3-difluoro-4-((1-methyl-1H-pyrazol-4-yl)oxy)piperidin-1-yl)-3,4-dimethyl-6,7-dihydro-5H-pyrrolo[3,4-b]pyridin-5-one] | 650
Cc1cc2c(nc1N1CCC(Oc3ccc4c(c3)C[S+]([O-])C4)CC1)CNC2=O (stereo not shown) [Example 167A, 3-methyl-2-(4-((2-oxido-1,3-dihydrobenzo[c]thio-phen-5-yl)oxy)piperidin-1-yl)-6,7-dihydro-5H-pyrrolo[3,4-b]pyridin-5-one] | 188
Cc1cc2c(nc1N1CCC(OCC3(O)CC3)CC1)CNC2=O [Example 312B, 2-(4-((1-hydroxycyclopropyl)methoxy)piperidin-1-yl)-3-methyl-6,7-dihydro-5H-pyrrolo[3,4-b]pyridin-5-one] | 1120
Cc1cc2c(nc1N1CCC(Oc3ccc(O[C@H](C)CO)nc3)CC1)CNC2=O (single isomer, unassigned) [Example 141A] | 82
Cc1cc2c(nc1N1CC[C@@H](Oc3cccc(C#N)c3)[C@@H](F)C1)CN(C)C2=O [Example 45, 3-(((3S,4R)-1-(3,6-dimethyl-5-oxo-6,7-dihydro-5H-pyrrolo[3,4-b]pyridin-2-yl)-3-fluoropiperidin-4-yl)oxy)benzonitrile] | 53
CCOc1ccc(OC2CCN(c3nc4c(cc3C)C(=O)N(CCO)C4)CC2)cn1 [Example 254, 2-(4-((6-ethoxypyridin-3-yl)oxy)piperidin-1-yl)-6-(2-hydroxyethyl)-3-methyl-6,7-dihydro-5H-pyrrolo[3,4-b]pyridin-5-one] | 69
Cc1cc2c(nc1N1CCC(Oc3ccc4[nH]ncc4c3Cl)CC1)CNC2=O [Example 314, 2-(4-((4-Chloro-1H-indazol-5-yl)ox)piperidin-1-yl)-3-methyl-6,7-dihydro-5H-pyrrolo[3,4-b]pyridin-5-one] | 676
Cc1cc2c(nc1N1CC[C@@H](Oc3ccccc3)[C@@H](F)C1)CNC2=O [Example 35, 2-((3S,4R)-3-fluoro-4-phenoxypiperidin-1-yl)-3-methyl-6,7-dihydro-5H-pyrrolo[3,4-b]pyridin-5-one] | 24
COc1ccc(OC2CCN(c3nc4c(cc3C(F)F)C(=O)NC4)CC2)cn1 [Example 307, 3-(Difluoromethyl)-2-(4-((6-methoxypyridin-3-yl)oxy)piperidin-1-yl)-6,7-dihydro-5H-pyrrolo[3,4-b]pyridin-5-one] | 1310

SMILES | EC50 [nM]
CO[C@@H]1Cc2ccc(OC3CCN(c4nc5c(cc4C)C(=O)NC5)CC3)cc2C1 [Example 162A, (R)-2-(4-((2-methoxy-2,3-dihydro-1H-inden-5-yl)oxy)piperidin-1-yl)-3-methyl-6,7-dihydro-5H-pyrrolo[3,4-b]pyridin-5-one] | 59
Cc1cc2c(nc1N1CC[C@@H](Oc3ccc4c(c3)CCOC4)[C@@H](F)C1)CNC2=O [Example 178A, 2-((3S,4R)-3-fluoro-4-(isochroman-6-yloxy)piperidin-1-yl)-3-methyl-6,7-dihydro-5H-pyrrolo[3,4-b]pyridin-5-one] | 18
CCOc1ccc(OC2CCN(c3nc4c(cc3C)C(=O)N[C@H]4CCO)CC2)cn1 [Example 234A, (S)-2-(4-((6-Ethoxypyridin-3-yl)ox)piperidin-1-yl)-7-(2-hydroxyethyl)-3-methyl-6,7-dihydro-5H-pyrrolo[3,4-b]pyridin-5-one] | 382
Cc1cc2c(nc1N1CCC(Oc3cnc4c(c3)COC4)CC1)[C@H](CO)N(C)C2=O [Example 277A, (R)-2-(4-((5,7-dihydrofuro[3,4-b]pyridin-3-yl)oxy)piperidin-1-yl)-7-(hydroxymethyl)-3,6-dimethyl-6,7-dihydro-5H-pyrrolo[3,4-b]pyridin-5-one] | 30000
CCc1cc2c(nc1N1CCC(Oc3ccc(OC)nc3)CC1)CNC2=O [Example 228, 3-Ethyl-2-(4-((6-methoxypyridin-3-yl)oxy)piperidin-1-yl)-6,7-dihydro-5H-pyrrolo[3,4-b]pyridin-5-one] | 86
COc1ncc(OC2CCN(c3nc4c(cc3C)C(=O)NC4)CC2)cn1 [Example 94, 2-(4-((2-methoxypyrimidin-5-yl)oxy)piperidin-1-yl)-3-methyl-6,7-dihydro-5H-pyrrolo[3,4-b]pyridin-5-one] | 1730
CNc1ccc(OC2CCN(c3nc4c(cc3C)C(=O)NC4)CC2)cn1 [Example 320, 3-Methyl-2-(4-((6-(methylamino)pyridin-3-yl)oxy)piperidin-1-yl)-6,7-dihydro-5H-pyrrolo[3,4-b]pyridin-5-one] | 150
Cc1cc2c(nc1N1CCC(Oc3ccc(CO)cc3)CC1)CNC2=O [Example 151, 2-(4-(4-(hydroxymethyl)phen-oxy)piperidin-1-yl)-3-methyl-6,7-dihydro-5H-pyrrolo[3,4-b]pyridin-5-one] | 32
Cc1cc2c(nc1N1CC[C@H](Oc3cccc(C#N)c3)[C@@H](O)C1)CNC2=O [Example 43B, 3-(((3S,4S)-3-hydroxy-1-(3-methyl-5-oxo-6,7-dihydro-5H-pyrrolo[3,4-b]pyridin-2-yl)piperidin-4-yl)oxy)benzonitrile] | 367
Cc1cc2c(nc1N1CCC(Oc3ccc4c(c3)OCC4)CC1)[C@@H](CO)N(C)C2=O [Example 355, (S)-2-(4-((2,3-dihydrobenzofuran-6-yl)oxy)piperidin-1-yl)-7-(hydroxymethyl)-3,6-dimethyl-6,7-dihydro-5H-pyrrolo[3,4-b]pyridin-5-one] | 16
Cc1cc2c(nc1N1CCC(Oc3cnn(C)c3)CC1)CNC2=O [Example 206A, 3-methyl-2-(4-((1-methyl-1H-pyrazol-4-yl)oxy)piperidin-1-yl)-6,7-dihydro-5H-pyrrolo[3,4-b]pyridin-5-one] | 259
COc1ccc(OC2CCN(c3nc4c(cc3C)C(=O)N(CCO)C4CO)CC2)cn1 (stereo not shown) [Example 375, 6-(2-Hydroxyethyl)-7-(hydroxymethyl)-2-(4-((6-methoxypyridin-3-yl)oxy)piperidin-1-yl)-3-methyl-6,7-dihydro-5H-pyrrolo[3,4-b]pyridin-5-one] | 69
COc1ccc(OC2CCN(c3nc4c(cc3C)C(=O)N(C[C@@H](O)C(F)(F)F)C4)CC2)cn1 [Example 318, (R)-2-(4-((6-Methoxypyridin-3-yl)oxy)piperidin-1-yl)-3-methyl-6-(3,3,3-trifluoro-2-hydroxypropyl)-6,7-dihydro-5H-pyrrolo[3,4-b]pyridin-5-one] | 155
COCc1cccc(OC2CCN(c3nc4c(cc3C)C(=O)NC4)CC2)c1 [Example 57, 2-(4-(3-(methoxymethyl)phenoxy)piperidin-1-yl)-3-methyl-6,7-dihydro-5H-pyrrolo[3,4-b]pyridin-5-one] | 61
CCc1cc2c(nc1N1CCC(Oc3ccc4c(c3)COC4)CC1)[C@@H](CO)N(C)C2=O [Example 351, (S)-2-(4-((1,3-dihydro-2-benzofuran-5-yl)oxy)piperidin-1-yl)-3-ethyl-7-(hydroxymethyl)-6-methyl-6,7-dihydro-5H-pyrrolo[3,4-b]pyridin-5-one] | 40
